Test results taken from ChEMBL document CHEMBL3862033 (J Med Chem, 2016).

Biological target: T1, 5-hydroxytryptamine receptor 1A (Homo sapiens) (UniProt P08908)
T1 sequence (whole entry): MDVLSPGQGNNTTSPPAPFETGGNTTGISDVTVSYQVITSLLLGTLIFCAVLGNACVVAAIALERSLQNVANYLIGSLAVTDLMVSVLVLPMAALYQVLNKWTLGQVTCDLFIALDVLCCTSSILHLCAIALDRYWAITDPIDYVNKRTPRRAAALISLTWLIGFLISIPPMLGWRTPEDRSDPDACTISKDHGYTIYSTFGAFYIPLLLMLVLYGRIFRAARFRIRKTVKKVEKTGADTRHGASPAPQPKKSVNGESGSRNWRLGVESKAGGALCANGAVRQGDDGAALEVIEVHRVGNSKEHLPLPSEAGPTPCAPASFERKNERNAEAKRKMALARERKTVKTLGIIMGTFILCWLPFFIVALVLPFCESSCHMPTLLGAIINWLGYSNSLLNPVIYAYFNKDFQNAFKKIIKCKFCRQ
Experiment: Displacement of [3H]WAY100635 from human 5-HT1AR expressed in CHO cell membranes at 10 uM incubated for 90 mins under dark condition by microbeta scintillation counting method relative to control
Details: not given
In the case of `CCNC(=O)[C@H]1O[C@@H](n2cnc3c(N)ncnc32)[C@H](O)[C@@H]1O` [NECA], the inhibition is reported as < 50%. With `Nc1ncnc2c1ncn2[C@@H]1O[C@H](C(=O)NC2CC2)[C@@H](O)[C@H]1O` the inhibition was < 50%.

Biological target: 5-hydroxytryptamine receptor 1B (Homo sapiens) (UniProt P28222)
Sequence (P28222 whole entry): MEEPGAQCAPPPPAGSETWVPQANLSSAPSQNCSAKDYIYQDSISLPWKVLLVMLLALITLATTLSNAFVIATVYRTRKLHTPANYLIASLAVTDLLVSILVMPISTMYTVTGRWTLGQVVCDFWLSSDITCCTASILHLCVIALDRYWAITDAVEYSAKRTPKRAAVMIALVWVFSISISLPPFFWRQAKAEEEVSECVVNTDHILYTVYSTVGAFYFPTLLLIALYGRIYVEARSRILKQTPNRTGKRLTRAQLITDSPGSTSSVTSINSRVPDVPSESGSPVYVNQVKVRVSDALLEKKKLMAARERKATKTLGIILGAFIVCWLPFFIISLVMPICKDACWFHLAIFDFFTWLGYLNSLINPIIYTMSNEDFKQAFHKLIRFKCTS
Experiment: Displacement of [3H]5-CT from human 5-HT1BR expressed in HEK cell membranes at 10 uM incubated for 90 mins under dark condition by microbeta scintillation counting method relative to control
Details: HEK293
For `CCNC(=O)[C@H]1O[C@@H](n2cnc3c(N)ncnc32)[C@H](O)[C@@H]1O` [NECA], the inhibition was < 50%. For `Nc1ncnc2c1ncn2[C@@H]1O[C@H](C(=O)NC2CC2)[C@@H](O)[C@H]1O`, the inhibition was < 50%.

Biological target: 5-hydroxytryptamine receptor 1D (Homo sapiens) (UniProt P28221)
Sequence (P28221 whole entry): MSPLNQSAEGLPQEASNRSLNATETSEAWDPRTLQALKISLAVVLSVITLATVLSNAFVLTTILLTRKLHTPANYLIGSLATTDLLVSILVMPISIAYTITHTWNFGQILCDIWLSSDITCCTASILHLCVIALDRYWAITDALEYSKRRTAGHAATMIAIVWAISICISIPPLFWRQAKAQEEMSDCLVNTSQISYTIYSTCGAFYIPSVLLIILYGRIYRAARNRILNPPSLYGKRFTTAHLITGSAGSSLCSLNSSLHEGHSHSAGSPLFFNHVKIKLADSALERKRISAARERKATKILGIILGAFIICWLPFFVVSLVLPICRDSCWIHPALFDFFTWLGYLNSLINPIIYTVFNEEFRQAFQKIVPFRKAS
Experiment: Displacement of [3H]5-CT from human 5-HT1D receptor expressed in HEK-T cell membranes at 10 uM incubated for 90 mins under dark condition by microbeta scintillation counting method relative to control
Details: not given
In the case of `CCNC(=O)[C@H]1O[C@@H](n2cnc3c(N)ncnc32)[C@H](O)[C@@H]1O` [NECA], the inhibition is reported as < 50%. For `Nc1ncnc2c1ncn2[C@@H]1O[C@H](C(=O)NC2CC2)[C@@H](O)[C@H]1O`, the inhibition was < 50%.

Biological target: 5-hydroxytryptamine receptor 1E (Homo sapiens) (UniProt P28566)
Sequence (P28566 whole entry): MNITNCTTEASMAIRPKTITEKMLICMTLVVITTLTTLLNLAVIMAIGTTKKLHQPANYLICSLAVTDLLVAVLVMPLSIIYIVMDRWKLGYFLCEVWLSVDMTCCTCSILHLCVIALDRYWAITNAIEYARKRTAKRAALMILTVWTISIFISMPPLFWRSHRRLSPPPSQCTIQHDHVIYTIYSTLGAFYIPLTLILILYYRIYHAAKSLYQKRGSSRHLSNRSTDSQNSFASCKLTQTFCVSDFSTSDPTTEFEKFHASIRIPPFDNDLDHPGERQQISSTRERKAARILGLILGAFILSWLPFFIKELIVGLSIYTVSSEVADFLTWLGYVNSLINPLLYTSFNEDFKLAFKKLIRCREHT
Experiment: Displacement of [3H]5-HT from human 5-HT1E receptor expressed in HEK cell membranes at 10 uM incubated for 90 mins under dark condition by microbeta scintillation counting method relative to control
Details: HEK293
For `CCNC(=O)[C@H]1O[C@@H](n2cnc3c(N)ncnc32)[C@H](O)[C@@H]1O` [NECA], the inhibition was < 50%. In the case of `Nc1ncnc2c1ncn2[C@@H]1O[C@H](C(=O)NC2CC2)[C@@H](O)[C@H]1O`, the inhibition is reported as < 50%.

Biological target: 5-hydroxytryptamine receptor 4 (Homo sapiens) (UniProt Q13639)
Sequence (Q13639 whole entry): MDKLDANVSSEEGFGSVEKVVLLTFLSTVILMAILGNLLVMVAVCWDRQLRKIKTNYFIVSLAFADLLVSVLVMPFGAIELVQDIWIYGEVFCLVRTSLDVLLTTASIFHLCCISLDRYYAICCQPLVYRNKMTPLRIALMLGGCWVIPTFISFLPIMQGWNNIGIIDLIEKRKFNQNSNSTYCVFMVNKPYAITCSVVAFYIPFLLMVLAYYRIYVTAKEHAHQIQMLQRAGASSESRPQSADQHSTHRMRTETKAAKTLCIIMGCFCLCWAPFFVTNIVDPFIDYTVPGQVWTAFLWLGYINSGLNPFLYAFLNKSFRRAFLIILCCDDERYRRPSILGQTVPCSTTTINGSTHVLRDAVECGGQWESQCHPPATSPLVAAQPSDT
Experiment: Displacement of [3H]GR113808 from human 5-HT4 receptor at 10 uM incubated for 90 mins under dark condition by microbeta scintillation counting method relative to control
Details: not given
For `CCNC(=O)[C@H]1O[C@@H](n2cnc3c(N)ncnc32)[C@H](O)[C@@H]1O` [NECA], the inhibition was < 50%. For `Nc1ncnc2c1ncn2[C@@H]1O[C@H](C(=O)NC2CC2)[C@@H](O)[C@H]1O`, the inhibition was < 50%.

Biological target: 5-hydroxytryptamine receptor 6 (Homo sapiens) (UniProt P50406)
Sequence (P50406 whole entry): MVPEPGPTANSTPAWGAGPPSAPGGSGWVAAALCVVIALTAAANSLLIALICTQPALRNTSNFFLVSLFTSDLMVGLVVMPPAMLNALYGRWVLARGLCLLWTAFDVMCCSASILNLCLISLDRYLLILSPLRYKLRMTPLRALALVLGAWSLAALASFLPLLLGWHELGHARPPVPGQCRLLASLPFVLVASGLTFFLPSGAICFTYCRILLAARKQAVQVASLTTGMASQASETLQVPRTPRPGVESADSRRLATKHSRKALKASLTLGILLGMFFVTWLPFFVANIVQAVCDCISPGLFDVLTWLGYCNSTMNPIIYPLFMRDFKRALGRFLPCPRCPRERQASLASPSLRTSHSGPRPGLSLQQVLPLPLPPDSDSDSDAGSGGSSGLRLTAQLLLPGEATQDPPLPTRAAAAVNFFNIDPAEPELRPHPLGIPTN
Experiment: Displacement of [3H]LSD from human 5-HT6 receptor expressed in HEK cell membranes at 10 uM incubated for 90 mins under dark condition by microbeta scintillation counting method relative to control
Details: HEK293
In the case of `CCNC(=O)[C@H]1O[C@@H](n2cnc3c(N)ncnc32)[C@H](O)[C@@H]1O` [NECA], the inhibition is reported as < 50%. In the case of `Nc1ncnc2c1ncn2[C@@H]1O[C@H](C(=O)NC2CC2)[C@@H](O)[C@H]1O`, the inhibition is reported as < 50%.

Biological target: 5-hydroxytryptamine receptor 7 (Homo sapiens) (UniProt P34969)
Sequence (P34969 whole entry): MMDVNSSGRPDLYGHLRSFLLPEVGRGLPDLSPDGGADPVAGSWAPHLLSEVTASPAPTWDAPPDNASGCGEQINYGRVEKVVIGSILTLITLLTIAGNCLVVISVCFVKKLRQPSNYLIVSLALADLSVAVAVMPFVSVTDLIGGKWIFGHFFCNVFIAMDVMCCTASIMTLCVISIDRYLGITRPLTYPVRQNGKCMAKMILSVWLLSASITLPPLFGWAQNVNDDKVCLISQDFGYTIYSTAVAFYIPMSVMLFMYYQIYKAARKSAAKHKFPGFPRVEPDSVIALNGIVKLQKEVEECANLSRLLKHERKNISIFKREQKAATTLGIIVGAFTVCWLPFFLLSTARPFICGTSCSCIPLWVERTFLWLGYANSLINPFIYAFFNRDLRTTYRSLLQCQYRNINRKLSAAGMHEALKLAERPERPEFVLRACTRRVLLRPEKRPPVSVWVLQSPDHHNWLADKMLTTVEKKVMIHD
Experiment: Displacement of [3H]LSD from human 5-HT7A receptor expressed in HEK cell membranes at 10 uM incubated for 90 mins under dark condition by microbeta scintillation counting method relative to control
Details: HEK293
In the case of `CCNC(=O)[C@H]1O[C@@H](n2cnc3c(N)ncnc32)[C@H](O)[C@@H]1O` [NECA], the inhibition is reported as < 50%. With `Nc1ncnc2c1ncn2[C@@H]1O[C@H](C(=O)NC2CC2)[C@@H](O)[C@H]1O` the inhibition was < 50%.

Biological target: T2, 5-hydroxytryptamine receptor 3A (Homo sapiens) (UniProt P46098)
T2 sequence (whole entry): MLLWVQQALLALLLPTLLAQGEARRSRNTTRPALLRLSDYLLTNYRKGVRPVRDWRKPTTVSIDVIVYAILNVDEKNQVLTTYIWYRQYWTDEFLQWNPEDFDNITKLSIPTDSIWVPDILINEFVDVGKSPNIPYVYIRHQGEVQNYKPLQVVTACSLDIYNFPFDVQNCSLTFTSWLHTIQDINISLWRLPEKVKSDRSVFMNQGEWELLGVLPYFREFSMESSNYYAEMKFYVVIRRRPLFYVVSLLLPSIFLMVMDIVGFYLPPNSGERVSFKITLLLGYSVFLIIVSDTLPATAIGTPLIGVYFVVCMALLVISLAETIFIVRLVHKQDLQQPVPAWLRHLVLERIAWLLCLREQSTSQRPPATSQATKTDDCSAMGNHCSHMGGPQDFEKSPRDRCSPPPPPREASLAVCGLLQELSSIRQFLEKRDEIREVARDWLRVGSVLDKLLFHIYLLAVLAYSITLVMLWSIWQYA
Experiment: Displacement of [3H]GR65630 from human 5-HT3 receptor expressed in HEK-T cell membranes at 10 uM incubated for 90 mins under dark condition by microbeta scintillation counting method relative to control
Details: not given
In the case of `CCNC(=O)[C@H]1O[C@@H](n2cnc3c(N)ncnc32)[C@H](O)[C@@H]1O` [NECA], the inhibition is reported as < 50%. In the case of `Nc1ncnc2c1ncn2[C@@H]1O[C@H](C(=O)NC2CC2)[C@@H](O)[C@H]1O`, the inhibition is reported as < 50%.

Biological target: 5-hydroxytryptamine receptor 5A (Homo sapiens) (UniProt P47898)
Sequence (P47898 whole entry): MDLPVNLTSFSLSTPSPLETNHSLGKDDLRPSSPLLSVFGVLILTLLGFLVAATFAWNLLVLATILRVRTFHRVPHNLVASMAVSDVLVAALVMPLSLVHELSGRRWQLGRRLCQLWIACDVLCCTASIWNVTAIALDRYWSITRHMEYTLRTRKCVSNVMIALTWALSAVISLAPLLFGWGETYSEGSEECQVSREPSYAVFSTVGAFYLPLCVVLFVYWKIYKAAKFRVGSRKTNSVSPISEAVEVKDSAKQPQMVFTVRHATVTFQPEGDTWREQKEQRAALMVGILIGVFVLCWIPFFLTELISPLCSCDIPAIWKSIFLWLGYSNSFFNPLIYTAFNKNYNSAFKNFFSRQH
Experiment: Displacement of [3H]LSD from human 5-HT5A receptor expressed in Flp-In-CHO cell membranes incubated for 90 mins under dark condition by microbeta scintillation counting method relative to control
Design: concentration or dose not given beside the values
Details: not given
In the case of `CCNC(=O)[C@H]1O[C@@H](n2cnc3c(N)ncnc32)[C@H](O)[C@@H]1O` [NECA], the inhibition is reported as < 50%. With `Nc1ncnc2c1ncn2[C@@H]1O[C@H](C(=O)NC2CC2)[C@@H](O)[C@H]1O` the inhibition was < 50%.

Biological target: T3, 5-hydroxytryptamine receptor 2A (Homo sapiens, UniProt P28223)
T3 sequence (P28223 whole entry): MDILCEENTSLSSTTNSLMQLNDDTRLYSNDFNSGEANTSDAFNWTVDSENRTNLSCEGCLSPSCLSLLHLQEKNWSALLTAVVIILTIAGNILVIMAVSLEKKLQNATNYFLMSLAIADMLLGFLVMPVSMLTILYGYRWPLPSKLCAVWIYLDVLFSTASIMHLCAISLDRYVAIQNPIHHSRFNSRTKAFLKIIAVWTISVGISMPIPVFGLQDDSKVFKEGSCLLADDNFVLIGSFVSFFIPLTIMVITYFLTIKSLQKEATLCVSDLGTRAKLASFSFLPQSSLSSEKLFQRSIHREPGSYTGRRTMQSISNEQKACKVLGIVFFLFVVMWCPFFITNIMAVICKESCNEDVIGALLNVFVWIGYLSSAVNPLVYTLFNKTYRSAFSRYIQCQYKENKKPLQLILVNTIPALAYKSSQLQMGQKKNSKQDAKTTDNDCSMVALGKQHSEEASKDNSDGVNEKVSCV
Experiment: Displacement of [3H]ketanserin from human 5-HT2A receptor expressed in HEK-T cell membranes at 10 uM incubated for 90 mins under dark condition by microbeta scintillation counting method relative to control
Details: not given
In the case of `Nc1ncnc2c1ncn2[C@@H]1O[C@H](C(=O)NC2CC2)[C@@H](O)[C@H]1O`, the inhibition is reported as < 10%.

Biological target: T4, 5-hydroxytryptamine receptor 2C (Homo sapiens) (UniProt P28335)
T4 sequence (whole entry): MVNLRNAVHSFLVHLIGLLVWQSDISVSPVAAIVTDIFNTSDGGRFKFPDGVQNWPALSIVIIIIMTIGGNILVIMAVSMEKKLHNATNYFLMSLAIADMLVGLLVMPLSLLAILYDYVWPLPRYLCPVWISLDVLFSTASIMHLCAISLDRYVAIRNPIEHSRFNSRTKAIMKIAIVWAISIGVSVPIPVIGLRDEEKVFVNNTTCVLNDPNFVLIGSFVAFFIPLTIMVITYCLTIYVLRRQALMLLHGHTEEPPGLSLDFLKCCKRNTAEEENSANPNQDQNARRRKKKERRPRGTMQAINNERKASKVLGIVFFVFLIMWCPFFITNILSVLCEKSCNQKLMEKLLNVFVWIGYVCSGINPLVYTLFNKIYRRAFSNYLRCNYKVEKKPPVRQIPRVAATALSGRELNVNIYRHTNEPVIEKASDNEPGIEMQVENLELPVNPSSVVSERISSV
Experiment: Displacement of [3H]mesulergine from human 5-HT2CR expressed in Flp-In HEK cell membranes at 10 uM incubated for 90 mins under dark condition by microbeta scintillation counting method relative to control
Details: HEK293
In the case of `Nc1ncnc2c1ncn2[C@@H]1O[C@H](C(=O)NC2CC2)[C@@H](O)[C@H]1O`, the inhibition is reported as < 10%.

Biological target: T5, Adenosine receptor A3 (Mus musculus) (UniProt Q61618)
T5 sequence (whole entry): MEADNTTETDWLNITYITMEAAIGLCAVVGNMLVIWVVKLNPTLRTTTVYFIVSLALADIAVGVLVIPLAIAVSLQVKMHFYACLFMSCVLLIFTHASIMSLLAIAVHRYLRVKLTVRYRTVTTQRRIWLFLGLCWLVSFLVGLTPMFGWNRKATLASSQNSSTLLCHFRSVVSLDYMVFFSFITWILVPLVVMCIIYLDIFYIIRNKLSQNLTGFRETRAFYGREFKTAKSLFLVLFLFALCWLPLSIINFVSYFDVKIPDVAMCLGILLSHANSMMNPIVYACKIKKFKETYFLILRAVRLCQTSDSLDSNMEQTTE
Experiment: Agonist activity at recombinant mouse A3AR expressed in HEK293 cells assessed as inhibition of forskolin-stimulated cAMP accumulation at 10 uM after 15 mins relative to adenosine-5'-N-ethyluronamide
Type: functional, cell-based
Details: not given
Work on `CCNC(=O)[C@H]1O[C@@H](n2cnc3c(N)ncnc32)[C@H](O)[C@@H]1O` [NECA] yielded an Imax of 100%.

Test system: not listed separately
Experiment: Displacement of [3H]DTG from sigma2 receptor in rat PC12 cells after 90 mins by microbeta scintillation counting method
Type: cell-based
Details: pc-12
`Nc1ncnc2c1ncn2[C@@H]1O[C@H](C(=O)NC2CC2)[C@@H](O)[C@H]1O` gave a Ki of 1.4 µM.

Biological target: T3, 5-hydroxytryptamine receptor 2A
Experiment: Displacement of [3H]ketanserin from human 5-HT2A receptor expressed in HEK-T cell membranes incubated for 90 mins under dark condition by microbeta scintillation counting method
Details: not given
In the case of `CCNC(=O)[C@H]1O[C@@H](n2cnc3c(N)ncnc32)[C@H](O)[C@@H]1O` [NECA], the Ki is reported as > 10 µM. With `Nc1ncnc2c1ncn2[C@@H]1O[C@H](C(=O)NC2CC2)[C@@H](O)[C@H]1O` the Ki was > 10 µM.

Biological target: 5-hydroxytryptamine receptor 2B (Homo sapiens, UniProt P41595)
Sequence (P41595 whole entry): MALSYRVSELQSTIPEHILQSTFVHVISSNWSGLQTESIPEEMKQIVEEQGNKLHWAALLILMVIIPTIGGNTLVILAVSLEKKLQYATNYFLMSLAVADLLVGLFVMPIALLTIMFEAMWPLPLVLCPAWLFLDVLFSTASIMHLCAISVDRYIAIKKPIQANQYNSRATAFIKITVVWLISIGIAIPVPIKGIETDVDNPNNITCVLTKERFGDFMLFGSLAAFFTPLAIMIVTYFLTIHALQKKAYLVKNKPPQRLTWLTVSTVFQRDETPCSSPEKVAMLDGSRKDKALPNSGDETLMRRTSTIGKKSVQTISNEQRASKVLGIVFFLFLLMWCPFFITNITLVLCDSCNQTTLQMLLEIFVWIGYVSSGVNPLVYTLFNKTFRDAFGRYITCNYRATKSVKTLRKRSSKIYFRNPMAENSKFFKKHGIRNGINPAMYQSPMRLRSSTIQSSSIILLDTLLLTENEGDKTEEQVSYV
Details: HEK293, at 10 µM
For `Nc1ncnc2c1ncn2[C@@H]1O[C@H](C(=O)NC2CC2)[C@@H](O)[C@H]1O`, the inhibition was < 10%.
